Entries after “also recorded” stand apart in the source; their conditions may differ.
Assays:
[1] = test system: HEK293 cells lacking GPR52; assay: cAMP Glosensor control in HEK293 cells lacking GPR52 (empty vector); settings: HEK293 cells with empty vector, 0.1 nM-10 μM
[2] = Brain permeability in rats; assay type: in vivo; settings: male, Sprague-Dawley, brain/plasma, rat, IV 10 mg/kg, read-out: Brain/Plasma Ratio
Method: In Vivo PK and Brain Permeability Studies. Male Sprague-Dawley rats (n=3 per treatment group; […] Rats were randomly assigned to treatment groups. […] The rat was restrained manually at the designated time points (0.08, 0.25, 0.5, 1.0, 2.0, 4.0, 8.0, and 24 h post-dosing for IV; 0.25, 0.5, 1.0, 2.0, 4.0, 8.0, and 24 h post-dosing for PO). 100 μL of blood (yielding ˜50 μL of plasma) samples are taken from the animal's jugular vein and placed into micro K2EDTA tubes. Blood samples were placed on ice and centrifuged at 8000 rpm for 5 min at 4° C. to generate plasma sample within 0.5 h of collection. Brain samples were collected at 0.25 and 1 h post-dosing. All samples were stored at −20° C. The concentration of 12c in each sample was analyzed by Sundia MediTech Co., Ltd. The study and the related standard operating procedures were reviewed and approved by the Sundia Institutional Animal Care and Use Committee. The Sundia animal facility is approved with yearly inspection by the Shanghai Laboratory Animal Management Committee. All treatment assignments were blinded to investigators who performed PK assays and end point statistical analyses.

[3] = test system: GABAA; assay: NIMH-PDSP broad-panel counter screening (binding); settings: mean percent inhibition of binding
[4] = biological target: human GPR52 (Homo sapiens (Human), UniProt Q9Y2T5); assay: Glosensor cAMP assay in HEK293 cells transiently expressing human GPR52; assay type: cell-based; settings: relative to compound 4 as 100% and 0.5% DMSO as 0%, mean ± SEM, "—" not detected
Sequence of human GPR52 (Q9Y2T5 whole entry): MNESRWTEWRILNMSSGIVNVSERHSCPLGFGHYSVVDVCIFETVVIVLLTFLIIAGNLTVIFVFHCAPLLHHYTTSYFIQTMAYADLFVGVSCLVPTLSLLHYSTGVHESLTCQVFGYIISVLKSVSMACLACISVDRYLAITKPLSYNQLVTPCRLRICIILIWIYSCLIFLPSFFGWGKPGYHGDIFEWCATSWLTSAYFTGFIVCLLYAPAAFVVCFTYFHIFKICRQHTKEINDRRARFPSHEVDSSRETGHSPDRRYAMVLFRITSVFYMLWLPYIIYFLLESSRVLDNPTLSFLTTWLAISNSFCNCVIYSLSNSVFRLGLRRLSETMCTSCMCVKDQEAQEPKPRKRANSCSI

[5] = In vivo PK in rats; settings: rat; for AUC(0-inf): mean ± SEM
Method: In Vivo PK and Brain Permeability Studies. […] 100 μL of blood (yielding ˜50 μL of plasma) samples are taken from the animal's jugular vein and placed into micro K2EDTA tubes. Blood samples were placed on ice and centrifuged at 8000 rpm for 5 min at 4° C. to generate plasma sample within 0.5 h of collection. Brain samples were collected at 0.25 and 1 h post-dosing. All samples were stored at −20° C. […] The Sundia animal facility is approved with yearly inspection by the Shanghai Laboratory Animal Management Committee. All treatment assignments were blinded to investigators who performed PK assays and end point statistical analyses. […] The peak concentration (Cmax) was directly obtained by visual inspection of the plasma concentration-time profile. The elimination rate constant (λ) was obtained by the least-squares fitted terminal log-linear portion of the slope of the plasma concentration-time profile. […] The area under the plasma concentration-time curve from 0 to time t (AUC0-t) was evaluated using the linear trapezoidal rule and further extrapolated to infinity (AUC0-∞) according to the following equation: AUC0-∞=AUC0-t+Clast/λ. The pharmacokinetic parameters were presented as mean±SEM.

[6] = biological target: hERG potassium channel (Homo sapiens (Human), UniProt Q12809); assay: NIMH-PDSP broad-panel counter screening (binding)
Sequence of hERG potassium channel (Q12809 whole entry): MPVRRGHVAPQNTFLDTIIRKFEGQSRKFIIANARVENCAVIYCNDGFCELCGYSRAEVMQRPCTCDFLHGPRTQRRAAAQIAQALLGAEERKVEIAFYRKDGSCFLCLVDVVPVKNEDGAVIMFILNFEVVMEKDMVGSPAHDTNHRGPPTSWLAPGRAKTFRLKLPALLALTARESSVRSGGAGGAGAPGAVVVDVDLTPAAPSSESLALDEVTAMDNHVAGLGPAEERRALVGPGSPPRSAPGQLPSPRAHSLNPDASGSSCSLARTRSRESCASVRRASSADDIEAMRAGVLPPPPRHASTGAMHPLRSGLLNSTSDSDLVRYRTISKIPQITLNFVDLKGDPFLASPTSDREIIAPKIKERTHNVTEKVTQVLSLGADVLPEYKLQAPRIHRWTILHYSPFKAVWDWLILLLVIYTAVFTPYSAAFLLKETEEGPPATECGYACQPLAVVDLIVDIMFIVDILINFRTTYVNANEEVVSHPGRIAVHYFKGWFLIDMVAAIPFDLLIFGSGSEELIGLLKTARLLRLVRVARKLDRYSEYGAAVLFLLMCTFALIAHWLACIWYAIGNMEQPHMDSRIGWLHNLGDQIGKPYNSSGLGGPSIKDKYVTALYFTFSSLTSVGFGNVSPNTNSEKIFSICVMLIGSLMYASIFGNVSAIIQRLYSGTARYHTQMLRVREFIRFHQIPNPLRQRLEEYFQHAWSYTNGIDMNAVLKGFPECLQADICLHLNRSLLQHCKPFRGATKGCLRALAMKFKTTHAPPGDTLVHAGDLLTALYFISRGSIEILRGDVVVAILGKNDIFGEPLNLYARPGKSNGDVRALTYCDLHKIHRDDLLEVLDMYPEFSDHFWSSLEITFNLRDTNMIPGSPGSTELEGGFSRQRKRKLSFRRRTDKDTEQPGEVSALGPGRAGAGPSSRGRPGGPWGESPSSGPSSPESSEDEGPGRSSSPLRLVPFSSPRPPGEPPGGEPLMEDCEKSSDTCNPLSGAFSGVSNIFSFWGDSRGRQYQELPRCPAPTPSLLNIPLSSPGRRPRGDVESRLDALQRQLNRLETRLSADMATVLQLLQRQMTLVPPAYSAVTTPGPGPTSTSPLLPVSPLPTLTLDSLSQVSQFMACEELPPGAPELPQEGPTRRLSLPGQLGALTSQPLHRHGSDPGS

[7] = biological target: 5-HT2C (Homo sapiens (Human), UniProt P28335); assay: NIMH-PDSP broad-panel counter screening (binding)
Sequence of 5-HT2C (P28335 33-458, species assumed): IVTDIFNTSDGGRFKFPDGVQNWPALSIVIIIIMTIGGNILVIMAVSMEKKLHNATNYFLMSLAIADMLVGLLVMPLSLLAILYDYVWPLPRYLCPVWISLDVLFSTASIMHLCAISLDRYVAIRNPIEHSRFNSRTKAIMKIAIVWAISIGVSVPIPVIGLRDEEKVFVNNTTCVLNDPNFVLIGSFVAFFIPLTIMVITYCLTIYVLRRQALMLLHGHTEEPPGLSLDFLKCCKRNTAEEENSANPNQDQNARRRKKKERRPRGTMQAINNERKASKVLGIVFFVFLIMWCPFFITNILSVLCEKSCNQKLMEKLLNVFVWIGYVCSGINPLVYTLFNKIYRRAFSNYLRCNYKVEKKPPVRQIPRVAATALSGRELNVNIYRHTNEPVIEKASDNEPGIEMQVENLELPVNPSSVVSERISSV

[8] = test system: C57/BL6 mice; assay: Locomotor activity and amphetamine-induced hyperlocomotion in mice; settings: P<0.05 vs vehicle; for AMPH-induced horizontal activity, first 30 min after AMPH: AMPH 3 mg/kg IP
[9] = male, Sprague-Dawley, plasma, IV 10 mg/kg
[10] = male, Sprague-Dawley, plasma, PO 20 mg/kg

## O=C(NCCO)c1cccc2c1CCN2c1cc(Cc2cc(F)cc(C(F)(F)F)c2)ncn1 [Compound 12c, 1-(6-(3-Fluoro-5-(trifluoromethyl)benzyl)pyrimidin-4-yl)-N-(2-hydroxyethyl)indoline-4-carboxamide]
[1]
  cAMP increase in cells lacking GPR52: no increase in cAMP; also recorded: did not increase cAMP
[2]; 0.25 h
  Kp at […]: 0.28
[2]; 1 h
  Kp at 1 h: 0.39
[3]
  % inhibition (10 μM): 5.98%
[4]; HEK293, cAMP assay, read-out: Emax (%)
  Emax: 136%
[4]; cAMP assay
  Emax (%): 134%
[5]; [9]
  Cmax: 6730 ng/mL
  clearance: 18.3 mL/min/kg
  AUC(0-inf): 9030 ng·h/mL
[5]; male, Sprague-Dawley, plasma, IV 10 mg/kg, read-out: Vss
  Vd: 1.5 L/kg
[5]; [10]
  Cmax: 3410 ng/mL
  AUC(0-inf): 13700 ng·h/mL
[5]; male, Sprague-Dawley, plasma, oral, 20 mg/kg
  bioavailability: 76%
[5]; IV 10 mg/kg
  CL: 18.3 ± 1.7 mL/min/kg
[5]; PO 20 mg/kg
  CL: 25 ± 5 mL/min/kg
  Vss: 5.5 ± 1.16 L/kg
[5]; absolute oral bioavailability, PO 20 mg/kg vs IV 10 mg/kg
  F (%): 76 ± 15%
[6]; 10 μM
  hERG potassium channel binding activity: did not show any
[6]; hERG, mean percent inhibition of binding
  % inhibition (10 μM): 11.04%
[7]
  Ki: > 10 µM
[8]; 3 mg/kg IP
  AMPH-induced horizontal activity, first 30 min after AMPH: suppressed AMPH-induced horizontal activity
  horizontal activity/30 min after compound injection: suppressed horizontal activity
[8]; 10 mg/kg IP
  AMPH-induced horizontal activity, first 30 min after AMPH: suppressed AMPH-induced horizontal activity
  horizontal activity/30 min after compound injection: suppressed horizontal activity

— patent US20240059655A1, “HETEROCYCLIC G-PROTEIN-COUPLED RECEPTOR 52 (GPR52) AGONISTS” (Board of Regents, The University of Texas System, priority 2020, published 2024)
